In patent publication US7642269B2, “Pyrrolo[3,2-B]pyridine derivatives and processes for the preparation thereof” (Yuhan Corporation, priority 2005, dated 2010):
pIC50: −log10 of the molar value. Where a name gives a salt, the structure may show the parent alone.

The molecules below were run against T1, H^+/K^+-ATPase (Sus scrofa, UniProt P19156) (assay: Inhibitory effects on proton pump (H^+/K^+-ATPase) activity, hog gastric vesicles). Details: K^+ stimulated H^+/K^+-ATPase activity, hog gastric vesicle, Pi measured at 620 nm.
T1 construct: used as an enzyme source of the in vitro enzyme reaction assay of proton pump; from tissue; host or cells: hog gastric fundic mucosa (membrane vesicles, lyophilized)
T1 sequence (P19156 2-1034 limits assumed): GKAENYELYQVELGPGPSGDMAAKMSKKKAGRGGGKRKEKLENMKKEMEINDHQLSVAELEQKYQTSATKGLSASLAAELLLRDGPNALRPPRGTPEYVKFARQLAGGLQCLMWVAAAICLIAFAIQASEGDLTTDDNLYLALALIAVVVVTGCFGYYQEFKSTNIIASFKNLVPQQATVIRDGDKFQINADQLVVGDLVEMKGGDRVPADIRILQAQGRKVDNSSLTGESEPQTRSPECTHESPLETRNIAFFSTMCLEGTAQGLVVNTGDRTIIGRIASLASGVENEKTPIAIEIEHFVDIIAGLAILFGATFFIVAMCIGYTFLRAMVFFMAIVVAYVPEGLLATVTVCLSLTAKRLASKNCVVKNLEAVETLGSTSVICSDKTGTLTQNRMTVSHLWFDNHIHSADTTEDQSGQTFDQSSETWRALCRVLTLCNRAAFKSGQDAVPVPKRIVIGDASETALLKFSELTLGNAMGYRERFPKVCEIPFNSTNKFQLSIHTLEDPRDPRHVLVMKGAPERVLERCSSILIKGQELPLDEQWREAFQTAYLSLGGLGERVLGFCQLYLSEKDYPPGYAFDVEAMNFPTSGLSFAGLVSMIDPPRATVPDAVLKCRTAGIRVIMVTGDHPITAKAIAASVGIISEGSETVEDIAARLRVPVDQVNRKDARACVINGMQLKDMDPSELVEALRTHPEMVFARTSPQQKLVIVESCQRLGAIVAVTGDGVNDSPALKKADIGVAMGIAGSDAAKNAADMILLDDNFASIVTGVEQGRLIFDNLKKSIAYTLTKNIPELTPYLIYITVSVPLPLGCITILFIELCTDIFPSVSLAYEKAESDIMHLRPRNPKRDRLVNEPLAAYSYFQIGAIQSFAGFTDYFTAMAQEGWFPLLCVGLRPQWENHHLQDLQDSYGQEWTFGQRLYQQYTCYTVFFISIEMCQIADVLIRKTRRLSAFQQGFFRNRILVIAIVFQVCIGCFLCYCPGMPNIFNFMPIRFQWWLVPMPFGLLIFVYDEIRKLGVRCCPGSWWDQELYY
T1 sequence (P18434 whole entry partner): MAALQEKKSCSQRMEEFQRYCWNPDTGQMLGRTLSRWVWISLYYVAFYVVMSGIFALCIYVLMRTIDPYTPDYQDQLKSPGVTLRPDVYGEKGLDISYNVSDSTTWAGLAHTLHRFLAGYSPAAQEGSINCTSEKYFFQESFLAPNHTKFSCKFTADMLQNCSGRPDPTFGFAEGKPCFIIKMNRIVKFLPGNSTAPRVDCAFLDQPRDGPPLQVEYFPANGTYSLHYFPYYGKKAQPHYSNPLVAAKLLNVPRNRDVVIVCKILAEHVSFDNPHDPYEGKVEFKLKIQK
Type: biochemical
How it was run: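 Lyophilized hog gastric vesicles in Pipes/Tris pH 6.1 were preincubated 5 min with compounds (1% DMSO), then run with ATP for 30 min at 37 °C. Released phosphate was measured by malachite green at 620 nm; K^+-stimulated activity taken as the difference between reactions with and without K^+.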

Row | pIC50 | Structure (SMILES)
1 | 5.54 | Cc1c(C)n(Cc2ccncc2)c2c(OCc3ccc(Cl)cc3)ccnc12 [Example 80, 7-(4-chlorobenzyloxy)-2,3-dimethyl-1-(pyridin-4-ylmethyl)-1H-pyrrolo[3,2-b]pyridine hydrochloride]
2 | 5.99 | CCCn1c(C)c(C)c2nccc(OCc3cccc(C)c3)c21 [Example 153, 2,3-dimethyl-7-(3-methylbenzyloxy)-1-propyl-1H-pyrrolo[3,2-b]pyridine hydrochloride]
3 | 6.89 | Cc1c(C)n(Cc2ccccc2)c2c(OCc3ccc4c(c3)OCO4)ccnc12 [Example 115, 7-(benzo[1,3]dioxol-5-ylmethoxy)-1-benzyl-2,3-dimethyl-1H-pyrrolo[3,2-b]pyridine hydrochloride]
4 | 6.28 | Cc1c(C)n(CCC2OCCO2)c2c(N3CCc4ccccc4C3)ccnc12 [Example 14, 1-[2-(1,3-dioxolan-2-yl)ethyl]-7-(1,2,3,4-tetrahydroisoquinolin-2-yl)-2,3-dimethyl-1H-pyrrolo[3,2-b]pyridine hydrochloride]
5 | 5.69 | Cc1c(C)n(Cc2ccccc2)c2c(NCc3ccc(F)cc3)ccnc12 [Example 261, N-(1-benzyl-2,3-dimethyl-1H-pyrrolo[3,2-b]pyridin-7-yl)-4-fluorobenzylamine hydrochloride]
6 | 6.57 | COC(=O)CCn1c(C)c(C)c2nccc(OCc3ccc(F)cc3)c21 [Example 57, 1-[2-(methoxycarbonyl)ethyl]-7-(4-fluorobenzyloxy)-2,3-dimethyl-1H-pyrrolo[3,2-b]pyridine hydrochloride]
7 | 6.26 | Cc1c(C)n(CC2CC2)c2c(NCc3ccc(F)cc3)ccnc12 [Example 255, N-(1-cyclopropylmethyl-2,3-dimethyl-1H-pyrrolo[3,2-b]pyridin-7-yl)-4-fluorobenzylamine hydrochloride]
8 | 6.21 | C=CCn1c(C)c(C)c2nccc(OCc3ccc4c(c3)OCO4)c21 [Example 98, 1-allyl-7-(benzo[1,3]dioxol-5-ylmethoxy)-2,3-dimethyl-1H-pyrrolo[3,2-b]pyridine hydrochloride]
9 | 6.08 | Cc1c(C)n(CC2CC2)c2c(OCc3cc(F)cc(F)c3)ccnc12 [Example 180, 1-cyclopropylmethyl-7-(3,5-difluorobenzyloxy)-2,3-dimethyl-1H-pyrrolo[3,2-b]pyridine hydrochloride]
10 | 7.22 | COCCn1c(C)c(C)c2nccc(OCc3ccc(F)cc3)c21 [Example 123, 7-(4-fluorobenzyloxy)-1-(2-methoxyethyl)-2,3-dimethyl-1H-pyrrolo[3,2-b]pyridine methanesulfonate]
11 | 6.27 | COCn1c(C)c(C)c2nccc(OCc3ccc(Cl)cc3Cl)c21 [Example 134, 7-(2,4-dichlorobenzyloxy)-1-methoxymethyl-2,3-dimethyl-1H-pyrrolo[3,2-b]pyridine hydrochloride]
12 | 6.62 | Cc1cccc(COc2ccnc3c(C)c(C)n(CC4CC4)c23)c1 [Example 154, 1-cyclopropylmethyl-2,3-dimethyl-7-(3-methylbenzyloxy)-1H-pyrrolo[3,2-b]pyridine hydrochloride]
13 | 6.64 | COc1ccc(Cn2c(C)c(C)c3nccc(OCc4ccc(F)cc4)c32)cc1 [Example 58, 7-(4-fluorobenzyloxy)-1-(4-methoxybenzyl)-2,3-dimethyl-1H-pyrrolo[3,2-b]pyridine hydrochloride]
14 | 6.28 | Cc1cccc(Cn2c(C)c(C)c3nccc(OCc4ccc(Cl)cc4)c32)c1 [Example 95, 7-(4-chlorobenzyloxy)-1-(3-methylbenzyl)-2,3-dimethyl-1H-pyrrolo[3,2-b]pyridine hydrochloride]
15 | 5.52 | C=CCn1c(C)c(C)c2nccc(OCc3ccccc3OCC)c21 [Example 164, 1-allyl-7-(2-ethoxybenzyloxy)-2,3-dimethyl-1H-pyrrolo[3,2-b]pyridine hydrochloride]
16 | 6.19 | Cc1c(C)n(Cc2ccc(Cl)cc2)c2c(OCc3ccc(F)cc3)ccnc12 [Example 33, 1-(4-chlorobenzyl)-7-(4-fluorobenzyloxy)-2,3-dimethyl-1H-pyrrolo[3,2-b]pyridine hydrochloride]
